This note sets out measurements from publication PMC10795796 (Biochemistry, 2023).

This assay concerns the target T1, TIR domain of TIR-1 (Caenorhabditis elegans, UniProt Q86DA5).
T1 sequence (Q86DA5 707-930): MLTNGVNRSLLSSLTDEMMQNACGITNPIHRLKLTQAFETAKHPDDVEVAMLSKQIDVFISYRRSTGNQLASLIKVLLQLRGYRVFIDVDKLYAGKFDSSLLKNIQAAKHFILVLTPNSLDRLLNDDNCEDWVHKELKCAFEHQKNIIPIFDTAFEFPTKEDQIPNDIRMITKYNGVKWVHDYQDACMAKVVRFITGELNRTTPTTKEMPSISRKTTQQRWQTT
Kind of assay: direct fluorescent base exchange assay. The class given is biochemical. To be noted: […] °C.

Structures are written as SMILES.

With `NC(=O)c1ccc[n+]([C@@H]2O[C@H](COP(=O)(O)OP(=O)(O)OC[C@H]3O[C@@H](n4cnc5c(N)ncnc54)[C@H](O)[C@@H]3O)[C@@H](O)[C@H]2O)c1` [NAD^+], the Km ([…] PC6 (saturating), […] PEG […] Tris pH […] NaCl) turned out to be 630 µM.
For the compound `CCOc1ccc(/C=C/c2ccncc2)cc1` [PC6], the Km ([…] NAD+ (saturating), […] PEG […] Tris pH […] NaCl) was 165 µM.
